Species on record: Rattus norvegicus
Assay: Open TG-GATES - Regimen: Single
Type: toxicity, organism-based, Sprague-Dawley
Design: regimen Single, gender Male, age 6 weeks
Conditions: in vivo, po, 0 mg/kg, route gavage, dose level Control; for APTT / Bas / Eos / Fbg / Hb / Ht / Lym / MCH / MCHC / MCV / Mono / Neu / PT / Plat / RBC / Ret / WBC: tissue Blood; for KIDNEY_L / KIDNEY_R / KIDNEY_TOTAL: tissue Kidney; for LIVER: tissue Liver; for A/G / ALP / ALT / AST / BUN / CRE / Ca / Cl / DBIL / GLC / IP / K / LDH / Na / PL / RALB / TBIL / TC / TG / TP / gamma-GTP: tissue Plasma

Cn1cnc([N+](=O)[O-])c1Sc1ncnc2nc[nH]c12 [AZATHIOPRINE]
TERMINAL_BW (3 h): 189.8 g
APTT (3 h): 23.1 s
Bas (3 h): 0%
Eos (3 h): 1%
Fbg (3 h): 288.2 mg/dL
Hb (3 h): 13.4 g/dL
Ht (3 h): 39.3%
Lym (3 h): 78.6%
MCH (3 h): 21.9 pg
MCHC (3 h): 34%
MCV (3 h): 64.5 fL
Mono (3 h): 2.4%
Neu (3 h): 17.2%
PT (3 h): 15.7 s
Plat (3 h): 117.7 x10_4/uL
RBC (3 h): 610.8 x10_4/ul
Ret (3 h): 9.3%
WBC (3 h): 98.5 x10_2/uL
KIDNEY_L (3 h): 0.9 g
KIDNEY_R (3 h): 0.9 g
KIDNEY_TOTAL (3 h): 1.7 g
LIVER (3 h): 8.6 g
A/G (3 h): 1.1
ALP (3 h): 1465.6 IU/L
ALT (3 h): 46.8 IU/L
AST (3 h): 78.4 IU/L
BUN (3 h): 11.8 mg/dL
CRE (3 h): 0.2 mg/dL
Ca (3 h): 10.3 mg/dL
Cl (3 h): 107 meq/L
DBIL (3 h): 0 mg/dL
GLC (3 h): 175.4 mg/dL
IP (3 h): 8.2 mg/dL
K (3 h): 3.9 meq/L
LDH (3 h): 217.6 IU/L
Na (3 h): 142.6 meq/L
PL (3 h): 129.6 mg/dL
RALB (3 h): 2.9 g/dL
TBIL (3 h): 0.006 mg/dL
TC (3 h): 79 mg/dL
TG (3 h): 46 mg/dL
TP (3 h): 5.5 g/dL
gamma-GTP (3 h): 1.2 IU/L
TERMINAL_BW (6 h): 186.3 g
APTT (6 h): 21.1 s
Bas (6 h): 0%
Eos (6 h): 1%
Fbg (6 h): 307.4 mg/dL
Hb (6 h): 13.2 g/dL
Ht (6 h): 39.3%
Lym (6 h): 73.8%
MCH (6 h): 21.6 pg
MCHC (6 h): 33.7%
MCV (6 h): 64.1 fL
Mono (6 h): 2.4%
Neu (6 h): 22%
PT (6 h): 15.7 s
Plat (6 h): 124.9 x10_4/uL
RBC (6 h): 612.4 x10_4/ul
Ret (6 h): 9.5%
WBC (6 h): 66 x10_2/uL
KIDNEY_L (6 h): 0.9 g
KIDNEY_R (6 h): 0.9 g
KIDNEY_TOTAL (6 h): 1.7 g
LIVER (6 h): 8.4 g
A/G (6 h): 1.3
ALP (6 h): 1451.6 IU/L
ALT (6 h): 42.8 IU/L
AST (6 h): 70.8 IU/L
BUN (6 h): 11.6 mg/dL
CRE (6 h): 0.1 mg/dL
Ca (6 h): 10.4 mg/dL
Cl (6 h): 106.4 meq/L
DBIL (6 h): 0.002 mg/dL
GLC (6 h): 183.8 mg/dL
IP (6 h): 8.8 mg/dL
K (6 h): 4.2 meq/L
LDH (6 h): 254.6 IU/L
Na (6 h): 141.6 meq/L
PL (6 h): 137.8 mg/dL
RALB (6 h): 3.1 g/dL
TBIL (6 h): 0.014 mg/dL
TC (6 h): 77.6 mg/dL
TG (6 h): 66.8 mg/dL
TP (6 h): 5.5 g/dL
gamma-GTP (6 h): 1 IU/L
TERMINAL_BW (9 h): 190.4 g
APTT (9 h): 20.8 s
Bas (9 h): 0%
Eos (9 h): 0.6%
Fbg (9 h): 301.8 mg/dL
Hb (9 h): 12.6 g/dL
Ht (9 h): 37.7%
Lym (9 h): 79.6%
MCH (9 h): 21.6 pg
MCHC (9 h): 33.2%
MCV (9 h): 65 fL
Mono (9 h): 2%
Neu (9 h): 16.2%
PT (9 h): 15.2 s
Plat (9 h): 127.2 x10_4/uL
RBC (9 h): 582 x10_4/ul
Ret (9 h): 9.9%
WBC (9 h): 93.5 x10_2/uL
KIDNEY_L (9 h): 0.9 g
KIDNEY_R (9 h): 0.9 g
KIDNEY_TOTAL (9 h): 1.9 g
LIVER (9 h): 8.2 g
A/G (9 h): 1.3
ALP (9 h): 1520.4 IU/L
ALT (9 h): 38 IU/L
AST (9 h): 72.8 IU/L
BUN (9 h): 10.6 mg/dL
CRE (9 h): 0.1 mg/dL
Ca (9 h): 10.5 mg/dL
Cl (9 h): 105.6 meq/L
DBIL (9 h): 0.004 mg/dL
GLC (9 h): 176.2 mg/dL
IP (9 h): 9.5 mg/dL
K (9 h): 4.3 meq/L
LDH (9 h): 182.4 IU/L
Na (9 h): 141.2 meq/L
PL (9 h): 125.2 mg/dL
RALB (9 h): 3 g/dL
TBIL (9 h): 0.016 mg/dL
TC (9 h): 76.4 mg/dL
TG (9 h): 46.2 mg/dL
TP (9 h): 5.3 g/dL
gamma-GTP (9 h): 1 IU/L
TERMINAL_BW (24 h): 202.7 g
APTT (24 h): 21.7 s
Bas (24 h): 0%
Eos (24 h): 0.6%
Fbg (24 h): 308.2 mg/dL
Hb (24 h): 13.5 g/dL
Ht (24 h): 39.6%
Lym (24 h): 77.4%
MCH (24 h): 22.2 pg
MCHC (24 h): 34.1%
MCV (24 h): 65.2 fL
Mono (24 h): 2%
Neu (24 h): 18.6%
PT (24 h): 16.2 s
Plat (24 h): 117.2 x10_4/uL
RBC (24 h): 607 x10_4/ul
Ret (24 h): 8.8%
WBC (24 h): 97.8 x10_2/uL
KIDNEY_L (24 h): 0.9 g
KIDNEY_R (24 h): 0.9 g
KIDNEY_TOTAL (24 h): 1.7 g
LIVER (24 h): 9.6 g
A/G (24 h): 1.2
ALP (24 h): 1642 IU/L
ALT (24 h): 46 IU/L
AST (24 h): 74.6 IU/L
BUN (24 h): 16.8 mg/dL
CRE (24 h): 0.1 mg/dL
Ca (24 h): 11 mg/dL
Cl (24 h): 106.8 meq/L
DBIL (24 h): 0 mg/dL
GLC (24 h): 185.6 mg/dL
IP (24 h): 7 mg/dL
K (24 h): 3.9 meq/L
LDH (24 h): 223.2 IU/L
Na (24 h): 143.2 meq/L
PL (24 h): 156.8 mg/dL
RALB (24 h): 3.1 g/dL
TBIL (24 h): 0.006 mg/dL
TC (24 h): 86.8 mg/dL
TG (24 h): 102.8 mg/dL
TP (24 h): 5.6 g/dL
gamma-GTP (24 h): 1 IU/L

Reference: ChEMBL document CHEMBL3885861, “Open TG-GATES”
